From patent US11136296B2, “Substituted N-arylethyl-2-arylquinoline-4-carboxamides and use thereof” (Bayer Aktiengesellschaft, priority 2017, dated 2021) come the findings set out here.

A word on the IC50: it is the concentration at which inhibition is half-maximal.

The target of the assay is FP receptor (Homo sapiens (Human), UniProt P43088). Nature of the assay: In vitro test of inhibition of human FP receptor activity (PGF2α-induced calcium flux in FP-expressing CHEM1 cells). It counts as cell-based. The note with it: PGF2α-induced (2 nM) calcium flux in FP-expressing CHEM1 cells; some as mean values from multiple determinations. The text has this: Table 1 below lists the IC50 values from this assay for individual working examples of the invention (some as mean values from multiple independent individual determinations): […]
Chain of FP receptor (P43088 whole entry): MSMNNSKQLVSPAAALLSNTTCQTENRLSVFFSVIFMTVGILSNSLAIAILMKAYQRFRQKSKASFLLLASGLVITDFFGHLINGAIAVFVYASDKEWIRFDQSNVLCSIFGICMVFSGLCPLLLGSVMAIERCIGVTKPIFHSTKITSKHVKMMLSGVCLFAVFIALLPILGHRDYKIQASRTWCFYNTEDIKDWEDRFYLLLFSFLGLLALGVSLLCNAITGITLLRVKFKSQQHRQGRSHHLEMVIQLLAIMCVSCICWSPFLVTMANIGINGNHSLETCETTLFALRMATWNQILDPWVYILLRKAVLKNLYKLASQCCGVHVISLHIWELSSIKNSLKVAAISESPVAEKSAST
For orientation: Calcium assays in cells follow changes in intracellular calcium, usually with a dye or a luminescent sensor.
As for `Cc1c(-c2ccccc2)nc2ccc(Br)cc2c1C(=O)NCC(C(=O)O)c1ccccc1` (racemic) [Example 1, (+/−)-3-{[(6-Bromo-3-methyl-2-phenylquinolin-4-yl)carbonyl]amino}-2-phenylpropanoic Acid], the IC50 was 130 nM.

As for `COc1ccccc1C(CNC(=O)c1c(C)c(-c2ccccc2)nc2ccc(Br)cc12)C(=O)O` (racemic) [Example 7, (+/−)-3-{[(6-Bromo-3-methyl-2-phenylquinolin-4-yl)carbonyl]amino}-2-(2-methoxyphenyl)propanoic Acid], the IC50 came to 24 nM.

`Cc1c(-c2ccccc2)nc2ccc(Br)cc2c1C(=O)NCC(C(=O)O)c1ccc(F)cc1` (racemic) [Example 10, (+/−)-3-{[(6-Bromo-3-methyl-2-phenylquinolin-4-yl)carbonyl]amino}-2-(4-fluorophenyl)propanoic Acid]: the IC50 came out at 320 nM.

On to `Cc1c(-c2ccccc2)nc2ccc(Br)cc2c1C(=O)NCC(C)(C(=O)O)c1ccccc1` (racemic) [Example 13, (+/−)-3-{[(6-Bromo-3-methyl-2-phenylquinolin-4-yl)carbonyl]amino}-2-methyl-2-phenylpropanoic Acid], for which the IC50 was 94 nM.

Consider `CCC(CNC(=O)c1c(C)c(-c2ccccc2)nc2ccc(Br)cc12)(C(=O)O)c1ccccc1` (racemic) [Example 16, (+/−)-2-({[(6-Bromo-3-methyl-2-phenylquinolin-4-yl)carbonyl]amino}methyl)-2-phenylbutanoic Acid], for which the IC50 stood at 170 nM.

`Cc1c(-c2ccccc2)nc2ccc(Br)cc2c1C(=O)NCC(O)(C(=O)O)c1ccccc1` (racemic) [Example 19, (+/−)-3-{[(6-Bromo-3-methyl-2-phenylquinolin-4-yl)carbonyl]amino}-2-hydroxy-2-phenylpropanoic Acid]: the IC50 was determined as 150 nM.

Take `Cc1c(-c2ccccc2)nc2ccc(Br)cc2c1C(=O)NCC(C(=O)O)c1cccc(C(F)(F)F)c1` (racemic) [Example 22, (+/−)-3-{[(6-Bromo-3-methyl-2-phenylquinolin-4-yl)carbonyl]amino}-2-[3-(trifluoromethyl)phenyl]propanoic Acid]: the IC50 was 76 nM.

`Cc1c(-c2ccccc2)nc2ccc(Br)cc2c1C(=O)NCC(C(=O)O)c1ccc2c(c1)OCO2` (racemic) [Example 23, (+/−)-2-(1,3-Benzodioxol-5-yl)-3-{[(6-bromo-3-methyl-2-phenylquinolin-4-yl)carbonyl]amino}propanoic Acid]: the IC50 is 530 nM.

`Cc1c(-c2ccccc2)nc2ccc(Br)cc2c1C(=O)NCC(C)(C(=O)O)c1ncccc1Cl` (racemic) [Example 26, (+/−)-3-{[(6-Bromo-3-methyl-2-phenylquinolin-4-yl)carbonyl]amino}-2-(3-chloropyridin-2-yl)-2-methylpropanoic Acid]: the IC50 is 44 nM.

`Cc1c(-c2ccccc2)nc2ccc(Br)cc2c1C(=O)NCC(C)(C(=O)O)c1ccccc1F` (racemic) [Example 29, (+/−)-3-{[(6-Bromo-3-methyl-2-phenylquinolin-4-yl)carbonyl]amino}-2-(2-fluorophenyl)-2-methylpropanoic Acid]: the IC50 is 140 nM.

Regarding `Cc1c(-c2ccccc2)nc2ccc(Br)cc2c1C(=O)NCC(C)(C(=O)O)c1c(F)cccc1F` (racemic) [Example 32, (+/−)-3-{[(6-Bromo-3-methyl-2-phenylquinolin-4-yl)carbonyl]amino}-2-(2,6-difluorophenyl)-2-methylpropanoic Acid], the IC50 stood at 150 nM.

Turning to `Cc1c(-c2ccccc2)nc2ccc(Br)cc2c1C(=O)NCC(C)(C(=O)O)c1ccccc1Cl` (racemic) [Example 35, (+/−)-3-{[(6-Bromo-3-methyl-2-phenylquinolin-4-yl)carbonyl]amino}-2-(2-chlorophenyl)-2-methylpropanoic Acid], the IC50 was determined as 190 nM.

`Cc1c(-c2ccccc2)nc2ccc(Br)cc2c1C(=O)NCC(F)(C(=O)O)c1ccccc1` (racemic) [Example 38, (+/−)-3-{[(6-Bromo-3-methyl-2-phenylquinolin-4-yl)carbonyl]amino}-2-fluoro-2-phenylpropanoic Acid]: the IC50 was found to be 47 nM.

As for `Cc1c(-c2ccccc2)nc2ccc(Br)cc2c1C(=O)NCC(C)(C(=O)O)c1cccc(C(F)(F)F)c1` (racemic) [Example 41, (+/−)-3-{[(6-Bromo-3-methyl-2-phenylquinolin-4-yl)carbonyl]amino}-2-methyl-2-[3-(trifluoromethyl)phenyl]propanoic Acid], the IC50 turned out to be 130 nM.

For the compound `COc1cccc(C(CNC(=O)c2c(C)c(-c3ccccc3)nc3ccc(Br)cc23)C(=O)O)c1` (racemic) [Example 44, (+/−)-3-{[(6-Bromo-3-methyl-2-phenylquinolin-4-yl)carbonyl]amino}-2-(3-methoxyphenyl)propanoic Acid], the IC50 was found to be 190 nM.

On to `Cc1c(-c2ccccc2)nc2ccc(Br)cc2c1C(=O)NCC(C(=O)O)c1cccc(Cl)c1` (racemic) [Example 47, (+/−)-3-{[(6-Bromo-3-methyl-2-phenylquinolin-4-yl)carbonyl]amino}-2-(3-chlorophenyl)propanoic Acid], for which the IC50 amounted to 43 nM.

Consider `Cc1cccc(C(CNC(=O)c2c(C)c(-c3ccccc3)nc3ccc(Br)cc23)C(=O)O)c1` (racemic) [Example 50, (+/−)-3-{[(6-Bromo-3-methyl-2-phenylquinolin-4-yl)carbonyl]amino}-2-(3-methylphenyl)propanoic Acid], for which the IC50 came to 79 nM.

`COc1ccccc1C(O)(CNC(=O)c1c(C)c(-c2ccccc2)nc2ccc(Br)cc12)C(=O)O` (racemic) [Example 53, (+/−)-3-{[(6-Bromo-3-methyl-2-phenylquinolin-4-yl)carbonyl]amino}-2-hydroxy-2-(2-methoxyphenyl)propanoic Acid]: the concentration for half-maximal inhibition (IC50) turned out to be 180 nM.

In the case of `COc1cccc(F)c1C(CNC(=O)c1c(C)c(-c2ccccc2)nc2ccc(Br)cc12)C(=O)O` (racemic) [Example 56, (+/−)-3-{[(6-Bromo-3-methyl-2-phenylquinolin-4-yl)carbonyl]amino}-2-(2-fluoro-6-methoxyphenyl)propanoic Acid], the IC50 amounted to 21 nM.

Turning to `Cc1c(-c2ccccc2)nc2ccc(Br)cc2c1C(=O)NCC(CC(=O)O)c1ccccc1` (racemic) [Example 63, (+/−)-4-{[(6-Bromo-3-methyl-2-phenylquinolin-4-yl)carbonyl]amino}-3-phenylbutanoic Acid], the IC50 stood at 340 nM.

As to `Cc1c(-c2ccccc2)nc2ccc(Br)cc2c1C(=O)NCC(CC(=O)O)c1ccc(Cl)cc1` (racemic) [Example 66, (+/−)-4-{[(6-Bromo-3-methyl-2-phenylquinolin-4-yl)carbonyl]amino}-3-(4-chlorophenyl)butanoic Acid], the IC50 amounted to 500 nM.

Take `Cc1c(-c2ccccc2)nc2ccc(Br)cc2c1C(=O)NCC(CC(=O)O)c1cccc(Cl)c1` (racemic) [Example 72, (+/−)-4-{[(6-Bromo-3-methyl-2-phenylquinolin-4-yl)carbonyl]amino}-3-(3-chlorophenyl)butanoic Acid]: the IC50 came to 45 nM.

In the case of `Cc1ccccc1C(CNC(=O)c1c(C)c(-c2ccccc2)nc2ccc(Br)cc12)CC(=O)O` (racemic) [Example 75, (+/−)-4-{[(6-Bromo-3-methyl-2-phenylquinolin-4-yl)carbonyl]amino}-3-(2-methylphenyl)butanoic Acid], the IC50 came out at 69 nM.

Regarding `Cc1c(-c2ccccc2)nc2ccc(Br)cc2c1C(=O)NCC(CC(=O)O)c1c(Cl)cccc1Cl` (racemic) [Example 78, (+/−)-4-{[(6-Bromo-3-methyl-2-phenylquinolin-4-yl)carbonyl]amino}-3-(2,6-dichlorophenyl)butanoic Acid], the IC50 came out at 100 nM.

As for `Cc1c(-c2ccccc2)nc2ccc(Br)cc2c1C(=O)NCC(C)(CC(=O)O)c1ncccc1Cl` (racemic) [Example 84, (+/−)-4-{[(6-Bromo-3-methyl-2-phenylquinolin-4-yl)carbonyl]amino}-3-(3-chloropyridin-2-yl)-3-methylbutanoic Acid], the IC50 was found to be 16 nM.

As for `Cc1c(-c2ccccc2)nc2ccc(Br)cc2c1C(=O)NCC(CC(=O)O)c1c(F)cccc1Cl` (racemic) [Example 87, (+/−)-4-{[(6-Bromo-3-methyl-2-phenylquinolin-4-yl)carbonyl]amino}-3-(2-chloro-6-fluorophenyl)butanoic Acid], the half-inhibitory concentration (IC50) amounted to 23 nM.

For `Cc1ccc(C(CNC(=O)c2c(C)c(-c3ccccc3)nc3ccc(Br)cc23)CC(=O)O)cc1` (racemic) [Example 90, (+/−)-4-{[(6-Bromo-3-methyl-2-phenylquinolin-4-yl)carbonyl]amino}-3-(4-methylphenyl)butanoic Acid], the IC50 worked out at 470 nM.

On to `Cc1cccc(C(CNC(=O)c2c(C)c(-c3ccccc3)nc3ccc(Br)cc23)CC(=O)O)c1` (racemic) [Example 93, (+/−)-4-{[(6-Bromo-3-methyl-2-phenylquinolin-4-yl)carbonyl]amino}-3-(3-methylphenyl)butanoic Acid], for which the IC50 was found to be 80 nM.

For the compound `Cc1c(-c2ccccc2)nc2ccc(Br)cc2c1C(=O)NCC(CC(=O)O)c1ccccc1OC(F)(F)F` (racemic) [Example 99, (+/−)-4-{[(6-Bromo-3-methyl-2-phenylquinolin-4-yl)carbonyl]amino}-3-[2-(trifluoromethoxy)phenyl]butanoic Acid], the IC50 amounted to 28 nM.

On to `Cc1c(-c2ccccc2)nc2ccc(Br)cc2c1C(=O)NCC(CC(=O)O)c1ccccn1` (racemic) [Example 102, (+/−)-4-{[(6-Bromo-3-methyl-2-phenylquinolin-4-yl)carbonyl]amino}-3-(pyridin-2-yl)butanoic Acid], for which the IC50 was found to be 460 nM.

On to `Cc1c(-c2ccccc2)nc2ccc(Br)cc2c1C(=O)NCC(CC(=O)O)c1ccccc1C(F)(F)F` (racemic) [Example 105, (+/−)-4-{[(6-Bromo-3-methyl-2-phenylquinolin-4-yl)carbonyl]amino}-3-[2-(trifluoromethyl)phenyl]butanoic Acid], for which the IC50 came out at 92 nM.
